Measured values from paper PMC10606064, “2-Aminothiazole-Flavonoid Hybrid Derivatives Binding to Tau Protein and Responsible for Antitumor Activity in Glioblastoma” (International Journal of Molecular Sciences, 2023).

Tests used:
Format in all cases: cell-based, human
U87 shTau cells [1] = experiment: Mitochondria network analysis (citrate synthase immunofluorescence), U87 shTau; conditions: 5 µM
Procedure: For indirect immunofluorescence of mitochondria, 10^4 cells were plated on cover glass and incubated for 24 h with compounds. Cells were then fixed in 4% formaldehyde (in PBS pH 7.4) for 20 min at RT, permeabilized with PBS-Triton X-100 0.5% for 10 min at RT. Immunostaining was carried out overnight at 4 °C with a primary anti-citrate synthase antibody (dilution 1:400 in PBS-BSA 3%; SC390693; SantaCruz Biotechnologies, Heidelberg, Germany). […] Each image was recorded with the CLSM’s spectral mode selecting specific domains of the emission spectrum. The Alexafluor488 and FITC fluorophores were excited at 488 nm with an argon laser, and fluorescence emission was collected between 496 nm and 535 nm. The TRITC fluorophore was excited at 543 nm with a helium–neon laser, and fluorescence was collected between 560 and 620 nm. […]
The analyses of mitochondria and microtubule networks were performed using, respectively, the ‘Mitochondria analyzer’ plugin for Fiji v1.54f software and the method described in our earlier work. Briefly, a series of images were transferred to the software and corrected for background fluorescence intensity contribution. Next, the surface of 50 single cells was measured by considering the cell shape as the boundary of labelling of actin or α-tubulin cytoskeletons (respectively for measurement on mitochondria or microtubules). […]

U87 shTau cells [2] = experiment: Mitotic index by high-content imaging, U87 shTau; conditions: 48 h, 5-times IC50 of compounds
Procedure: For scoring mitotic indexes, an automated high-content screening confocal microscopy approach was employed to identify cells undergoing mitosis from a large population of cells. For this, cells nuclei were stained with DAPI. Briefly, fibronectin-coated clear-glass-bottom black 96-well imaging plates were seeded with 100 µL of cell suspension (60,000 cell.mL^−1) in each well, with both U87 shCTRL and U87 ShTau cell lines. Cells were treated with 5-times IC50 of compounds for 48 h, then they were fixated inside the palates with 4% formaldehyde (in PBS pH 7.4) for 20 min at room temperature, permeabilized with PBS-Triton X-100 0.5% for 10 min at room temperature. DNA was then stained with DAPI (10 µg.mL^−1) for 5 min at room temperature and in the darkness. After being washed, cells were kept in PBS at 4 °C and imaged while in PBS. Automated confocal microscopy was carried out using an Opera Phenix (PerkinElmer) high-content screening microscope using a 20× Air/0.4 NA air objective. For each condition, 6 wells were prepared and a total of 61 fields were acquired for each well. Image analysis was performed using Harmony high-content analysis v4.8 software and PhenoLOGIC Machine Learning technology, which uses a learn-by-example approach. As a first step, nuclei were segmented and multiple parameters for these nuclei were calculated using Harmony v4.8 software building blocks. After training, PhenoLOGIC Machine Learning then selects the best parameters to detect nuclei undergoing the M phase of mitosis. From this, the mitotic index of each condition was calculated by dividing the number of cells undergoing mitosis over the total number of cells.

U87 shCTRL cells = experiment: Cell cycle by flow cytometry (propidium iodide), U87 shCTRL; conditions: 48 h
Procedure: Measurements of cell cycle from DNA content were performed by flow cytometry as described before. Briefly, 4.10^5 cells in exponential growth were seeded in 6-well plates. After 24 h, they were treated with 10 µM of compounds for 48 h. Nocodazole was used as a positive control with a concentration of 1 µM. The trypsinized cells were harvested and then centrifuged (1200 rpm, 5 min, at room temperature). The cell pellet was resuspended in 1 mL of PBS 1× at 4 °C, and then an extra 4 mL of cold PBS was added to wash the pellet. Cells were then centrifuged again (1200 rpm, 5 min, at 4 °C). To fixate the cells, the pellet was resuspended in 100 µL of cold 70% ethanol, then an additional 900 µL was added and cells were incubated for 30 min at −20 °C. After that, 9 mL of cold PBS was added, and cells were centrifuged (2000 rpm, 5 min, at 4 °C) to remove ethanol. The cell pellet was then resuspended in the staining mix containing 50 µg.mL^−1 of propidium iodide (Molecular Probes, Paris, France) and 100 µg.mL^−1 of RNAse A (Sigma-Aldrich, Saint-Quentin-Fallavier, France) in PBS for 20 min at room temperature in darkness. Samples were analyzed on a Beckman–Coulter–Gallios flow cytometer using the Kaluza for Gallios Acquisition v1.0 software. Propidium iodide was excited at 488 nm, and fluorescence was analyzed at 620 nm on channel FL-3. For the analysis, there is considerable overlap between early S phase and G1 and between late S phase and G2/M due to broadening of the distribution caused by variability in the staining of the cells and instrumental variability. Therefore, the percentages of cells in the sub-G1, G1, S, and G2/M phases of the cell cycle were calculated using the Watson et al. algorithm for cell cycle analysis in Kaluza for Gallios Analysis v2.1 software. The software automatically adjusted gates based on PI median fluorescence intensity of the cells and their frequency among total cells. The number of cells in each phase was divided by the total number of analyzed cells, and the values were reported as percentage of the total cells for each cell cycle phase.

| SMILES | impact on the mitochondria networks (U87 shTau cells [1]) | mitotic index (U87 shTau cells [2]) | %G1 (cells in G1 phase) (U87 shCTRL cells; compounds 10 µM, NOC 1 µM) | %G2/M (cells in G2/M phase) (U87 shCTRL cells; compounds 10 µM, NOC 1 µM) | effect on cell cycle progression (U87 shCTRL cells; 10 µM) |
| --- | --- | --- | --- | --- | --- |
| Nc1nc2ccc3oc(C(=O)O)cc(=O)c3c2s1 [Compound 5] | none of the compounds had an impact | 3 ± 0.39% | 53 ± 4% | 34 ± 5% | – |
| Nc1nc2ccc3oc(-c4cccc(Oc5ccccc5)c4)cc(=O)c3c2s1 [Compound 2, 2-amino-7-(3-phenoxyphenyl)-9H-chromeno [6,5-d]thiazol-9-one] | none of the compounds had an impact | no significant variation of mitotic indexes | – | – | no significant effect on cell cycle progression |
